The values below come from US20240140895A1, “NOVEL AROMATIC MOLECULES” (XENIOPRO GmbH, priority 2018, published 2024).

Common to all, as to assay type: cell-based
Test [1] relates to Notch signaling (human Notch1 receptor, hNotch1ΔE). The experiment in a line: Notch reporter assay (dual luciferase, HeLa cells transfected with hNotch1ΔE). Conditions: 10 μM. The source says: The activation level of Notch signaling can be quantified in vitro reliably by measuring the expression levels of Notch specific target genes. This can be accomplished by the quantification of corresponding mRNA or protein of a particular Notch target gene. Alternatively, cells can be genetically modified to carry a luciferase gene as an artificial Notch target gene, which is expressed in dependence of Notch activity. In this setting, Notch signaling levels can be quantified by measuring the luciferase-derived bioluminescence values.
An according Notch-reporter assay, i.e. a luciferase-based luminescence readout, was used here to quantify the ability of the claimed compounds to augment Notch signaling in a cellular system. […] After 24 hours of transfection, the transfected cells were carefully detached from the dish using 0.5 mM EDTA in PBS and seeded into 96-well plates suitable for luminescence readouts (CORNING, #3610) at 10,000 cells per well. […] Directly after the lysis, first the Firefly and then the Renilla luciferase values were measured consecutively from the same well with a luminescence reader immediately after applying 15 μL per well each of the corresponding enzyme substrates needed to create the luminescence signals (Promega, Dual-Luciferase® Reporter Assay System, #E1910). […]
In general terms: In a reporter assay the amount or activity of a reporter protein is the signal.

The test system of test [2] is TANOUE cells (human B cell leukemia cells). The experiment in a line: Proliferation assay (alamarBlue) with TANOUE cells. Conditions: Homo sapiens, B-cell, read-out: Activity Range: weighted arithmetic mean (AVEw) of normalized fluorescence intensity relative to DMSO basis level 1.0. The source says: (§1) The antiproliferative activities of compounds falling under formula (Ia), (Tb) and (Ic), respectively, were investigated on cells or cell lines originating from a disorder of the haematopoietic system, including the myeloid cell compartment and the lymphoid cell compartment (T-cells and B-cells), the neuroendocrine system, the cervix, the breast, the ovaries, the lung, the gastrointestinal tract, and the mucosal epithelium, as well as from the skin epithelium and from the muscle. To this end, HL-60 cells, NB-4 cells, HH cells, RPMI-8402 cells, TANOUE cells, TT cells, HeLa cells, MDA-MB-231 cells, FU-OV-1 cells, LOU-NH91 cells, 23132/87 cells, CAL-27 cells, BHY cells, SCC-25 cells, A-431 cells, human primary epidermal keratinocytes (HPEK), and C2C12 cells were seeded into 96-well plates suitable for fluorescence assays (CORNING #3598) at following initial cell numbers: 1000 cells per well for HL-60; 1000 cells per well for NB-4; 5000 cells per well for HH; 5000 cells per well for RPMI-8402; 1500 cells per well for TANOUE; 9000 cells per well for TT; 2000 cells per well for HeLa; 3000 cells per well for MDA-MB-231; 3000 cells per well for FU-OV-1; 4000 cells per well for LOU-NH91; 2000 cells per well for 23132/87; 2000 cells per well for CAL-27; 1500 cells per well for BHY; 1500 cells per well for SCC-25; 700 cells per well for A-431; 1000 cells per well for HPEK; 500 cells per well for C2-C12. The cells were treated with compounds at indicated final concentrations (diluted from the 1000× stock-solutions in DMSO to a final DMSO concentration of 0.1% v/v in H2O (Water For Injection, WFI, Fisherscientific #10378939)) or with the empty carrier DMSO at 0.1% v/v as control for 5 days. At day 5 after starting the treatments the cells were subjected to the alamarBlue® Proliferation Assay (Bio-Rad Serotec GmbH, BUF012B) according to the protocol of the manufacturer. The readout was taken with a multi-well plate-reader in the fluorescence mode with applying a filter for excitation at 560 nm (band width 10 nm) and for emission at 590 nm (band width 10 nm). Control treatments for growth inhibition with commercial compounds such as Methotrexate (MTREX) and Resveratrol (RES) were included on every plate. Some of the test compounds of the present invention were obtained and applied as their salts. According cases are indicated in the column “Specification” in Table 30 to Table 62 and by their sum formula in Table 63.
(§2) The assays were performed in duplicate or more replicates of independent single experiments each containing a six-fold replicate for every condition. For every individual plate, the measured fluorescence intensity values of the conditions with compound treatment were normalized against the corresponding equally weighted arithmetic mean of the fluorescence intensity values of the six DMSO treated control wells in order to obtain the relative values to a baseline level of 1.0.
(§3) Two independent outlier analyses were performed according to the methods by Peirce and Chauvenet (Ross, Journal of Engineering Technology 2003, 1-12). Outliers confirmed by at least one of the methods were excluded from the calculations but not more than one value out of six per compound within a single experiment. The weighted arithmetic mean (here abbreviated as AVEw) for each compound was calculated from the normalized values over all independent replicates of the single experiments comprising the six replicates each. The corresponding standard deviation for the weighted arithmetic mean was calculated according to the method described by Bronstein et al. (Bronstein, Semendjajew, Musiol, Muhlig, Taschenbuch der Mathematik, 5th edition 2001 (German), publisher: Verlag Harri Deutsch, Frankfurt am Main and Thun) and was combined with the Gauβ′ error propagation associated with the performed calculation for the normalization. The resulting standard deviation is herein referred to as “combined standard deviation”. […]
For orientation: Alamar Blue is a resazurin reagent that responds to reducing activity.

The subject of test [3] is BHY cells (human oral squamous cell carcinoma cells). The experiment in a line: Proliferation assay (alamarBlue) with BHY cells. Particulars: read-out: Activity Range: weighted arithmetic mean (AVEw) of normalized fluorescence intensity relative to DMSO basis level 1.0.
Description: as §1, §2, §3

For test [4], the system named is A-431 cells (human epidermoid squamous cell carcinoma cells). The experiment in a line: Proliferation assay (alamarBlue) with A-431 cells. Conditions: for activity at 20 µM: Homo sapiens, read-out: Activity Range: weighted arithmetic mean (AVEw) of normalized fluorescence intensity relative to DMSO basis level 1.0.
Description: as §1, §2, §3

Test [5] has as its system NB-4 cells (human acute promyelocytic leukemia cells). The experiment in a line: Proliferation assay (alamarBlue) with NB-4 cells. Particulars: for activity at 20 µM: Homo sapiens, Table 32, compound at 20 μM, read-out: Activity Range (AVEw, weighted arithmetic mean of normalized fluorescence intensity, DMSO = 1.0).
Description: as §1, §2, §3

In test [6] the test system is C2C12 cells (murine myoblast cells). The experiment in a line: Proliferation assay (alamarBlue) with C2C12 cells. Conditions: Mus musculus, compound at 20 μM, read-out: Activity Range: weighted arithmetic mean (AVEw) of normalized fluorescence intensity, relative to DMSO basis level 1.0.
Description: as §1, §2, §3

For test [7], the system named is RPMI-8402 cells (human T cell acute lymphoblastic leukemia cells). The experiment in a line: Proliferation assay (alamarBlue) with RPMI-8402 cells. Particulars: Homo sapiens, read-out: Activity Range: weighted arithmetic mean (AVEw) of normalized fluorescence intensity relative to DMSO basis level 1.0.
Description: as §1, §2, §3

Test [8] has as its system CAL-27 cells (human tongue squamous cell carcinoma cells). The experiment in a line: Proliferation assay (alamarBlue) with CAL-27 cells. Conditions: read-out: Activity Range: weighted arithmetic mean (AVEw) of normalized fluorescence intensity relative to DMSO basis level 1.0.
Description: as §1, §2, §3

The test system of test [9] is HH cells (human cutaneous T-cell lymphoma cells). The experiment in a line: Proliferation assay (alamarBlue) with HH cells. Conditions: Table 34, compound at 20 μM, read-out: Activity Range (AVEw, weighted arithmetic mean of normalized fluorescence intensity, DMSO = 1.0).
Description: as §1, §2, §3

The test system of test [10] is HPEKp cells (human epidermal keratinocyte progenitors, pooled). The experiment in a line: Proliferation assay (alamarBlue) with HPEKp cells. Conditions: compound at 10 μM, read-out: Activity Range: weighted arithmetic mean (AVEw) of normalized fluorescence intensity, relative to DMSO basis level 1.0.
Description: as §1, §2, §3

For test [11], the system named is SCC-25 cells (human tongue squamous cell carcinoma cells). The experiment in a line: Proliferation assay (alamarBlue) with SCC-25 cells. Particulars: Homo sapiens, read-out: Activity Range: weighted arithmetic mean (AVEw) of normalized fluorescence intensity relative to DMSO basis level 1.0.
Description: as §1, §2, §3

The test system of test [12] is MDA-MB-231 cells (human breast carcinoma cells). The experiment in a line: Proliferation assay (alamarBlue) with MDA-MB-231 cells. Conditions: Homo sapiens, read-out: Activity Range: weighted arithmetic mean (AVEw) of normalized fluorescence intensity relative to DMSO basis level 1.0.
Description: as §1, §2, §3

Test [13] relates to HL-60 cells (human acute myeloid leukemia cells). The experiment in a line: Proliferation assay (alamarBlue) with HL-60 cells. Conditions: for activity at 20 µM: Homo sapiens, Table 30, compound at 20 μM, read-out: Activity Range (AVEw, weighted arithmetic mean of normalized fluorescence intensity, DMSO = 1.0).
Description: as §1, §2, §3

Test [14] has as its system 23132/87 cells (human gastric adenocarcinoma cells). The experiment in a line: Proliferation assay (alamarBlue) with 23132/87 cells. Conditions: read-out: Activity Range: weighted arithmetic mean (AVEw) of normalized fluorescence intensity relative to DMSO basis level 1.0.
Description: as §1, §2, §3

In test [15] the test system is HeLa cells (human cervical adenocarcinoma cells). The experiment in a line: Proliferation assay (alamarBlue) with HeLa cells. Conditions: compound at 20 μM. The source says:
(§4) The antiproliferative activities of compounds falling under formula (Ia), (Tb) and (Ic), respectively, were investigated on cells or cell lines originating from a disorder of the haematopoietic system, including the myeloid cell compartment and the lymphoid cell compartment (T-cells and B-cells), the neuroendocrine system, the cervix, the breast, the ovaries, the lung, the gastrointestinal tract, and the mucosal epithelium, as well as from the skin epithelium and from the muscle. To this end, HL-60 cells, NB-4 cells, HH cells, RPMI-8402 cells, TANOUE cells, TT cells, HeLa cells, MDA-MB-231 cells, FU-OV-1 cells, LOU-NH91 cells, 23132/87 cells, CAL-27 cells, BHY cells, SCC-25 cells, A-431 cells, human primary epidermal keratinocytes (HPEK), and C2C12 cells were seeded into 96-well plates suitable for fluorescence assays (CORNING #3598) at following initial cell numbers: 1000 cells per well for HL-60; 1000 cells per well for NB-4; 5000 cells per well for HH; 5000 cells per well for RPMI-8402; 1500 cells per well for TANOUE; 9000 cells per well for TT; 2000 cells per well for HeLa; 3000 cells per well for MDA-MB-231; 3000 cells per well for FU-OV-1; 4000 cells per well for LOU-NH91; 2000 cells per well for 23132/87; 2000 cells per well for CAL-27; 1500 cells per well for BHY; 1500 cells per well for SCC-25; 700 cells per well for A-431; 1000 cells per well for HPEK; 500 cells per well for C2-C12. […] The readout was taken with a multi-well plate-reader in the fluorescence mode with applying a filter for excitation at 560 nm (band width 10 nm) and for emission at 590 nm (band width 10 nm). […]
(§5) The assays were performed in duplicate or more replicates of independent single experiments each containing a six-fold replicate for every condition. For every individual plate, the measured fluorescence intensity values of the conditions with compound treatment were normalized against the corresponding equally weighted arithmetic mean of the fluorescence intensity values of the six DMSO treated control wells in order to obtain the relative values to a baseline level of 1.0. […]

Test [16] concerns FU-OV-1 cells (human ovarian carcinoma cells). The experiment in a line: Proliferation assay (alamarBlue) with FU-OV-1 cells. Particulars: 20 μM.
Description: as §4, §5

For test [17], the system named is TT cells (human medullary thyroid carcinoma cells). The experiment in a line: Proliferation assay (alamarBlue) with TT cells. Particulars: compound at 20 μM.
Description: as §4, §5

Test [18] relates to LOU-NH91 cells (human lung squamous cell carcinoma cells). The experiment in a line: Proliferation assay (alamarBlue) with LOU-NH91 cells. Conditions: 20 μM.
Description: as §4, §5

With `C[C@H](NC(=O)Cc1cc(F)cc(F)c1)C(=O)N[C@H](C(=O)OC(C)(C)C)c1ccccc1` [DAPT], the “Activity Range: weighted arithmetic mean (AVEw) of double-normalized Notch-reporter luminescence, relative to DMSO basis level 1.0” value in test [1] is given as 0.1 ± 0.0.
Turning to `c1ccc(COC2(c3ccc(Oc4ccc(C5CCCCC5)cc4)cc3)CNC2)cc1` [XPA-1317, 3-(benzyloxy)-3-(4-(4-cyclohexylphenoxy)phenyl)azetidine], the activity at 20 µM in test [2], in test [3], in test [4], in test [5], in [6] and in [7] was 0 to 20% each time. The activity at 20 µM in test [8], in test [9], in [11], in [12], in test [13] and in [14] was 0 to 20% each time. In addition, in [10], the activity at 10 µM lay within 0 to 20%.
Turning to `CN(Cc1cnc2nc(N)nc(N)c2n1)c1ccc(C(=O)N[C@@H](CCC(=O)O)C(=O)O)cc1` [MTREX, Methotrexate, reference compound], the “Activity Range: weighted arithmetic mean (AVEw) of normalized fluorescence intensity relative to DMSO basis level 1.0” value in test [15] is reported as 0.4 ± 0.0; in [16] it was 1 ± 0.0; in test [4] (compound at 20 μM) it was 0.2 ± 0.1; in test [17] it was 1.0 ± 0.0; in [18], 0.5 ± 0.1. Moreover, the activity at 20 µM in test [2] was determined as 10%; in test [3] it was 30%; in test [4], 20 ± 10%; in [5], 10%; in test [6], 10%; in [7] it was 10%. In addition, the activity at 20 µM in [8] turned out to be 10%; in test [9], 40 ± 10%; in [11], 50 ± 10%; in test [12], 60%; in test [13], 10 ± 10%; in test [14] it was 30%. For the same compound, the “Activity Range (AVEw, weighted arithmetic mean of normalized fluorescence intensity, DMSO = 1.0)” value in test [5] (Table 33, compound at 20 μM) came to 0.1 ± 0.0; in test [13] (Table 31, compound at 20 μM), 0.1 ± 0.1.
For `CCOC(=O)c1ccc(Oc2ccc(C3CCN(C)CC3)cc2)cc1` [XPA-0064, ethyl 4-(4-(1-methylpiperidin-4-yl)phenoxy)benzoate], the activity at 20 µM was 0 to 20% in [2]; 0 to 20% in test [3]; 0 to 20% in test [4]; 20 to 40% in test [5]; 0 to 20% in test [6]; 0 to 20% in test [7]. The activity at 20 µM lay within 0 to 20% in [8]; 40 to 60% in [9]; 0 to 20% in test [11]; 40 to 60% in test [12]; 70 to 80% in test [13]; 70 to 80% in [14]. Also, in [10], the activity at 10 µM lay in the range of 0 to 20%.
